Laboratory results from the NIST ThermoML archive (doi:10.1016/j.jct.2017.03.006).

Experiment: molar heat capacity at constant pressure; xn = mol fraction of the nth substance listed
Conditions: Liquid, Flow calorimetry

Cc1ccc(C)c(C)c1 [1,2,4-trimethylbenzene] + CCCCO
molar heat capacity at constant pressure [J/K/mol]
Conditions | x2 = 0 | x2 = 0.1002 | x2 = 0.2327 | x2 = 0.3969 | x2 = 0.53 | x2 = 0.637 | x2 = 0.7176 | x2 = 0.7975 | x2 = 0.8594 | x2 = 0.9131
293.15 K, 100 kPa | 216.2 | 220 | 219.5 | 214 | 209.9 | 203.6 | 197 | 192.5 | 186.5 | 181.9
293.15 K, 5000 kPa | 215 | 219 | 219 | 213.4 | 208.8 | 203.3 | 196 | 191.8 | 186.3 | 181.4
293.15 K, 10000 kPa | 213.3 | 217.3 | 218.1 | 212.8 | 207.7 | 202.4 | 194.9 | 190.8 | 185.1 | 181.1
293.15 K, 15000 kPa | 212.5 | 216 | 217.4 | 212.1 | 206.3 | 202 | 194.2 | 190.2 | 184.1 | 180.7
293.15 K, 20000 kPa | 210.8 | 215.4 | 216.9 | 211.3 | 205.9 | 201.1 | 193.3 | 189.6 | 183.4 | 180.3
293.15 K, 25000 kPa | 209.8 | 214.5 | 216.3 | 210.3 | 204.7 | 199.9 | 192 | 188.6 | 182.4 | 180
313.15 K, 100 kPa | 222.5 | 230.5 | 231.1 | 230 | 224.9 | 220.4 | 214.4 | 210.3 | 204.5 | 200.7
313.15 K, 5000 kPa | 221.2 | 229.4 | 230.1 | 228.9 | 223 | 218.9 | 212.6 | 209.1 | 203.7 | 199.4
313.15 K, 10000 kPa | 219.6 | 228.5 | 229.8 | 227.4 | 222.3 | 217.6 | 211.5 | 208.6 | 203.3 | 198.8
313.15 K, 15000 kPa | 218.5 | 227.3 | 228.5 | 226.4 | 220.5 | 216.5 | 210.2 | 207.8 | 202.6 | 197.7
313.15 K, 20000 kPa | 217.7 | 225.8 | 227.3 | 225.4 | 219.2 | 215.4 | 209.3 | 206.4 | 202 | 196.6
313.15 K, 25000 kPa | 217.1 | 225.5 | 227 | 224.3 | 218.4 | 213.6 | 208.1 | 206.1 | 201.3 | 196

Cc1ccc(C)c(C)c1 [1,2,4-trimethylbenzene] + CCC(C)O
molar heat capacity at constant pressure [J/K/mol]
Conditions | x2 = 0 | x2 = 0.1001 | x2 = 0.3 | x2 = 0.5298 | x2 = 0.6001 | x2 = 0.7001 | x2 = 0.7997 | x2 = 0.9001
293.15 K, 100 kPa | 216.2 | 219.6 | 221.6 | 223.7 | 216 | 213 | 206.9 | 200.5
293.15 K, 5000 kPa | 215 | 218.1 | 220.8 | 222.1 | 215.3 | 211.7 | 205.2 | 198.5
293.15 K, 10000 kPa | 213.3 | 217 | 219.6 | 220.3 | 213.9 | 210.4 | 203.7 | 196.8
293.15 K, 15000 kPa | 212.5 | 216.2 | 219 | 218.9 | 213.2 | 208.5 | 201.9 | 195.5
293.15 K, 20000 kPa | 210.8 | 215.2 | 218.3 | 217.6 | 211.7 | 206.9 | 200.7 | 194.6
293.15 K, 25000 kPa | 209.8 | 214.6 | 217.3 | 215.9 | 210.5 | 205.5 | 199.7 | 193.3
313.15 K, 100 kPa | 222.5 | 231.1 | 235.8 | 234.2 | 233.8 | 232.1 | 226.9 | 224.2
313.15 K, 5000 kPa | 221.2 | 230.3 | 233.7 | 232.8 | 232.6 | 230 | 224.8 | 221.1
313.15 K, 10000 kPa | 219.6 | 229.5 | 232.6 | 231.9 | 230.1 | 227.4 | 222.4 | 218.9
313.15 K, 15000 kPa | 218.5 | 228.8 | 231.1 | 230.9 | 229 | 225.3 | 220.6 | 217.3
313.15 K, 20000 kPa | 217.7 | 227.7 | 229.9 | 229.6 | 227.2 | 223.8 | 219.3 | 216
313.15 K, 25000 kPa | 217.1 | 226.4 | 229.5 | 228.2 | 225.6 | 222.7 | 218.1 | 214.1

CCC(C)O (stereo not drawn) [butan-2-ol] + Cc1ccc(C)c(C)c1
molar heat capacity at constant pressure [J/K/mol], x1 = 1
Conditions | 100 kPa | 5000 kPa | 10000 kPa | 15000 kPa | 20000 kPa | 25000 kPa
293.15 K | 189.1 | 187.1 | 185.5 | 185.2 | 183.6 | 182.7
313.15 K | 214.9 | 213.1 | 211.1 | 209.4 | 207.2 | 204.9
